According to publication PMC6444013, “Development of a fluorescence-based method for the rapid determination of Zika virus polymerase activity and the screening of antiviral drugs” (Scientific Reports, 2019):

Target: T1, ZIKV RdRp (ZIKV NS5 RdRp domain) (Zika virus, UniProt A0A0X1LH65)
T1 construct: RdRp domain residues 275-903 of NS5, cut from the genome polyprotein; E. coli BL21(DE3)-pRIL; 75 kDa
Assay: real-time SYTO […] fluorescence polymerization assay
Assay type: biochemical

T1 sequence (A0A0X1LH65 2795-3423): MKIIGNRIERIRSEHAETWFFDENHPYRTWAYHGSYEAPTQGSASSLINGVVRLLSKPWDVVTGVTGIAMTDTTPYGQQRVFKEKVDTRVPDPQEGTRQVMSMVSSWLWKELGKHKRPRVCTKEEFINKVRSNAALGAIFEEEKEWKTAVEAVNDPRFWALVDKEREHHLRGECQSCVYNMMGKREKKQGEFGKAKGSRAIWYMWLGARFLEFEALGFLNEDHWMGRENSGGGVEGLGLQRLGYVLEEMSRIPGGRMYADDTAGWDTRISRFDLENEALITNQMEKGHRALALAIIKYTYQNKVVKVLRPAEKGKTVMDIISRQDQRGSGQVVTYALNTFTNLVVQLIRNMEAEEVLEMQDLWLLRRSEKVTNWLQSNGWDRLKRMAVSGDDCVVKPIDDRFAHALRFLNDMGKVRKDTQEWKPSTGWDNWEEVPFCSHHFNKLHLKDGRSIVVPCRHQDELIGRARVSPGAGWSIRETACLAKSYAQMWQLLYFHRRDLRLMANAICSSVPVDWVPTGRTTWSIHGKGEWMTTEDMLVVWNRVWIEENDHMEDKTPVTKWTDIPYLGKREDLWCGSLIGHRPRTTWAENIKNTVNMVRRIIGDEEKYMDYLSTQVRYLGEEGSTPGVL

Compound | IC50 [µM]
Nc1ncnc2c1ncn2[C@@H]1O[C@H](COP(=O)(O)OP(=O)(O)OP(=O)(O)O)C[C@H]1O [cordycepin 5′-triphosphate] | 54 ± 7
NC(=O)c1ncn([C@@H]2O[C@H](CO[P@@](=O)(O)O[P@](=O)(O)OP(=O)(O)O)[C@@H](O)[C@H]2O)n1 [ribavirin 5′-triphosphate] | 946 ± 46
